Values after ≈ are worked out from the molar mass of the structure shown. Values joined by “and” are separate entries in the source; they are usually repeats but may differ in a detail not shown here. Equal values may be shown once.
Columns and labels:
[1] = cytotoxicity in ATH8 cells (method of Mitsuya and Broder); format: cell-based; settings: human
Source text: The method of Mitsuya and Broder (AIDS: Modern Concepts and Therapeutic Challenges; Broder, S. ED.; Marcel Dekker, Inc.; New York, 1987; Chapter 18) was used to determine the in vitro anti-HIV-1 and anti-HIV-2 activity in ATH8 cells of some compounds of the invention. […]

[2] = test system: Human Immunodeficiency Virus (HIV-1); experiment: anti-HIV-1 protection of ATH8 cells (method of Mitsuya and Broder); format: cell-based; settings: Human immunodeficiency virus 1, ATH-8, HIV-1, ATH8 cells, read-out: Protective Effect
Source text: The method of Mitsuya and Broder (AIDS: Modern Concepts and Therapeutic Challenges; Broder, S. ED.; Marcel Dekker, Inc.; New York, 1987; Chapter 18) was used to determine the in vitro anti-HIV-1 and anti-HIV-2 activity in ATH8 cells of some compounds of the invention. The results of the test are expressed as the percentage of ATH8 cells that were protected from the cytopathogenic effects of HIV at various concentrations of the compound of the invention.

[3] = test system: Human Immunodificiency Virus (HIV-1); experiment: inhibition of HIV-1 replication in human PBMC (RT activity); format: cell-based; settings: Human immunodeficiency virus 1; HIV-1, PBMC, median-effect method
Description: Human peripheral blood mononuclear cells (PBMC) from healthy HIV-1 seronegative and hepatitis B virus seroneqative donors were isolated by Ficoll-Hypague discontinuous gradient centrifugation at 1,000×g for 30 minutes, washed twice in phosphate buffered saline (pH 7.2; PBS), and pelleted at 300×g for 10 minutes. Before infection, the cells were stimulated by phytohemagglutinin (PHA) at a concentration of 16.7 ug/ml for three days in RPMI 1640 medium supplemented with 15% heat-inactivated fetal calf serum, 1.5 mM L-glutamine, penicillin (100 U/ml), streptomycin (100 ug/ml) and 4 mM sodium bicarbonate buffer.
Uninfected PHA stimulated human PBMC were uniformly distributed among 25 cm^2 flasks to give a 5 ml suspension containing about 2×10^6 cells/ml. Suitable dilutions of virus were added to infect the cultures. The mean reverse transcriptase (RT) activity of the inocula was 60,000 dpm RT activity/10^6 cells. […]
The RT assay was perfromed in 96-well microtiter plates as described by Spira, et al. (J. Clin. Microbiol. 25 97 (1987)). […] Four ml of scintillation fluid (Econofluor, NEN Research Products, Boston, Ma.) were added and the amount of radioactivity in each sample was determined using a Packard Tri Carb liquid scintillation analyzer (model 2,000CA). […]

[4] = test system: HCT8: Adenocarcinoma, ileocecal; experiment: cytotoxic activity against cultured tumor cells, HCT-8; format: cell-based; settings: Homo sapiens, 72 h; HCT-8, 3 days, MTT
[5] = test system: Herpes simplex type 1 (HSV-1) strain E-377; experiment: CPE-inhibition assay, HSV-1 strain E-377 in Vero cells
A549: Lung carcinoma = experiment: cytotoxic activity against cultured tumor cells, A549; format: cell-based; settings: Homo sapiens, 72 h; A549, 3 days, MTT
[6] = test system: Herpes simplex type 2 (HSV-2) strain MS; experiment: CPE-inhibition assay, HSV-2 strain MS in Vero cells; settings: for EC50: Human alphaherpesvirus 2, Vero, read-out: ID50 (minimum drug concentration that inhibited the CPE by 50%), HSV-2 (MS), Vero
[7] = test system: P388D1: Lymphocytic Leukemia; experiment: cytotoxic activity against cultured tumor cells, P388-D1; format: cell-based; settings: Mus musculus, P388D1, 72 h; P388-D1, 3 days, MTT

Structure (SMILES)	cytotoxicity at 1 µM ([1]; HIV-1 experiment) [%]	cytotoxicity at 10 µM ([1]; HIV-1 experiment) [%]	cytotoxicity at 100 µM ([1]; HIV-1 experiment, 100 uM) [%]	cytotoxicity at 1 µM ([1]; HIV-2 experiment) [%]	cytotoxicity at 10 µM ([1]; HIV-2 experiment) [%]	inhibition at 1 µM [2] [%]	inhibition at 10 µM [2] [%]	inhibition at 100 µM ([2]; 100 uM) [%]	EC50 [3] [nM]	IC50 [4] [µg/mL]	TI (Therapeutic Index, MTC/ID50) ([5]; HSV-1 (E-377), Vero)	VR (Virus Rating) ([5]; HSV-1 (E-377), Vero, >1.0 definite, 0.5-0.9 marginal to moderate, <0.5 no significant activity)	IC50 (A549: Lung carcinoma) [µg/mL]	EC50 [6] [µg/mL]	IC50 [7] [µg/mL]	EC50 ([5]; Human alphaherpesvirus 1, Vero, read-out: ID50 (minimum drug concentration that inhibited the CPE by 50%), HSV-1 (E-377), Vero) [µg/mL]	TI (Therapeutic Index, MTC/ID50) ([6]; HSV-2 (MS), Vero)
Nc1ncnc2c1ncn2C1CC(CO)C1CO (centres unmarked) [Example 4C, 9-(2',3'-Bis(hydroxymethyl)cyclobutyl)adenine]	12	33	34	9	15	48	63	76	960	71.4 (≈ 286 µM)	3.7 and > 2.2	2.1	49.1 (≈ 197 µM)	18.1 (≈ 72.6 µM)	0.64 (≈ 2.57 µM)	–	–
Nc1nc2c(ncn2C2CC(CO)C2CO)c(=O)[nH]1 (centres unmarked) [Example 1I, 9-(2',3'-Bis(hydroxymethyl)cyclobutyl)guanine]	0	0	–	11	11	51	90	–	980	> 100	213 and 129	–	94.6 (≈ 357 µM)	6.4 (≈ 24.1 µM)	2.8 (≈ 10.6 µM)	1.5 (≈ 5.65 µM)	50 and 30

— patent US5153352A, “Process for preparation of intermediates of carbocyclic nucleoside analogs” (priority 1990, dated 1992)
